From patent publication US20080300232A1, “N-Piperidine Derivatives as Ccr3 Modulators” (ASTRAZENECA AB, priority 2004, published 2008)

Tests used:
[1] = molecular target: T1, human Melanin concentrating hormone receptor 1 (MCH1r) (Homo sapiens, UniProt Q99705); test: MCH1 receptor radioligand binding (125I-MCH, CHO-K1 cell membranes); conditions: CHO-K1 membranes expressing human MCH1r, 30° C., 60 minutes, read-out: IC50 in human MCHr binding assay
T1 construct: expressed in transfected cells; host or cells: CHO-K1
T1 sequence (Q99705 whole entry): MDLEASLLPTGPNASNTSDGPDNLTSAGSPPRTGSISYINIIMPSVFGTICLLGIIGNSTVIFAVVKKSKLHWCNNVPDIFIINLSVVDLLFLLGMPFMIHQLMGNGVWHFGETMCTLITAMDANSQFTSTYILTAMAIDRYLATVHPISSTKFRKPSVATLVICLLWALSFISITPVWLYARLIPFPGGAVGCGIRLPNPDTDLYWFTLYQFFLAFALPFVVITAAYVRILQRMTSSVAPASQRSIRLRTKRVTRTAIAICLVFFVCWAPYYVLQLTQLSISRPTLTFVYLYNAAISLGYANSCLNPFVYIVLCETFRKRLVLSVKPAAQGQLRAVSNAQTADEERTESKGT
Procedure: MCH1 Receptor Radioligand Binding.
Assays were performed on membranes prepared from CHO—K1 cells expressing the human Melanin concentrating hormone receptor 1 (MCH1r). Assays were performed in a 96-well plate format in a final reaction volume of 200 μl per well. Each well contained 6 μg of membrane proteins diluted in binding buffer (50 mM Tris, 3 mM MgCl2, 0.05% bovine serum albumin and the radioligand ^125I-MCH (IM344 Amersham) was added to give 10 000 cpm (counts per minute) per well. Each well contained 2 μl of the appropriate concentration of competitive antagonist prepared in DMSO and left to stand at 30° C. for 60 minutes. Non-specific binding was determined as that remaining following incubation with 1 μM MCH (Melanin concentrating hormone, H-1482 Bachem). The reaction was terminated by transfer of the reaction to GF/A filters using a Micro96 Harvester (Skatron Instruments, Norway). Filters were washed with assay buffer. Radioligand retained on the filters was quantified using al450 Microbeta TRILUX (Wallac, Finland).
Non-specific binding was subtracted from all values determined. Maximum binding was that determined in the absence of any competitor following subtraction of the value determined for non-specific binding. Binding of compounds at various concentrations was plotted according to the equation
and IC50 estimated where A is the bottom plateau of the curve i.e. the final minimum y value B is the top of the plateau of the curve i.e. the final maximum y value C is the x value at the middle of the curve. This represents the log EC50 value when A+B=100 D is the slope factor. x is the original known x values. y is the original known y values.

[2] = molecular target: T2, recombinant hMCHr (Homo sapiens, UniProt Q99705); test: MCH1 functional assay ([35S]GTPγS binding, membranes with recombinant hMCHr); assay type: biochemical; conditions: ED80 concentration of MCH, 45 min at 30° C., read-out: IC50 of antagonists in MCH1 functional assay
T2 construct: purchased Euroscreen
T2 sequence (Q99705 whole entry): as above
Procedure: Membranes expressing recombinant hMCHr (5.45 pmol/mg protein; Euroscreen) were prepared in assay buffer (50 mM HEPES, 100 mM NaCl, 5 mM MgCl2, 1 mM EDTA, 200 μM DTT, 20 μM GDP (Sigma) containing 0.1 μg/ml BSA, pH7.4) before assay. The assays were performed using membranes at 6 μg/well in an assay volume of 200 μl and the appropriate concentrations of compounds prepared in DMSO. The reaction was started by addition of 0.056 nM [^35S]GTPγS (Specific activity >1000 Ci/mmol; Amersham) and an ED80 concentration of MCH (determined for each membrane and each MCH batch). Non-specific binding was determined using 20 μM non-radiolabelled GTPγS. Plates were incubated for 45 min at 30° C. Free and bound GTPγS were separated by filtration binding using GF/B filter mats presoaked in wash buffer (50 mM Tris, 5 mM MgCl2, 50 mM NaCl, pH 7.4) using a Micro96 cell harvester (Skatron Instruments) and the filters then dried at 50° C. before counting using al450 Microbeta TRILUX (Wallac).
Data are means ±SD for experiments performed in triplicate. IC50 values of antagonists were determined using non-linear regression analysis of concentration response curves using Activity Base.

[3] = tested on: Male Wistar-Hanover rats; test: Pharmacodynamic effect in rat (food intake and body weight after fasting); assay type: in vivo; conditions: 16.7 μmol/kg i.p. amorphous nanoparticle formulation, time interval 0-4 h
Procedure: Pharmacodynamic Effect in Rat
Male Wistar-Hanover rats (Charles River, 300-350 grams) were acclimated to individually housing in conventional cages (Makrolon III) with 12:12 hour light-dark photoperiod (lights on at 06.00) in a temperature (20-22° C.) and humidity (40-60%) controlled room. R-3 lab chow (Lactanin, Vadstena, Sweden) and tap water from bottles were allowed ad libidum. At 16.00 on the day before experiments, animals were weighed & food (but not water) was removed. At 08.00 on experiment day, animals were weighed & compound (i.p. amorphous nanoparticle formulation, 5 ml/kg) or vehicle (3-10% DMA depending on compound formulation) administered. Animals were returned to their home cages & given access to a weighed amount of food. This food was then re-weighed 1, 2, 4, 6 & 24 hours later, and food consumption calculated by the difference from initial food weight.
Animals were further weighed at the 24-hr timepoint, and change in body weight over the treatment period was calculated.

## COc1ccc(-n2ccc(CN3CCC(NC(=O)COc4cccc(Cl)c4)CC3)c2)cc1 [Example 3, 2-(3-chlorophenoxy)-N-({[1-(4-methoxyphenyl)-1H-pyrrol-3-yl]methyl}piperidin-4-yl)acetamide]
[1]
  IC50: 167 nM
[2]
  IC50: 45 nM

## O=C(CCc1cccc(Cl)c1)NC1CCN(Cc2ccn(-c3ccc(C(F)(F)F)cc3)c2)CC1 [Example 29, 3-(3-chlorophenyl)-N-[1-({1-[4-(trifluoromethyl)phenyl]-1H-pyrrol-3-yl}methyl)piperidin-4-yl]propanamide]
[1]
  IC50: 66 nM
[2]
  IC50: 66 nM

## O=C(COc1cccc(Cl)c1)NC1CCN(Cc2ccc(-c3ccc(Cl)cc3)o2)CC1 [Example 8, 2-(3-chlorophenoxy)-N-(1-{[5-(4-chlorophenyl)-2-furyl]methyl}piperidin-4-yl)acetamide]
[1]
  IC50: 105 nM
[2]
  IC50: 111 nM

## N#Cc1ccccc1OCC(=O)NC1CCN(Cc2ccn(-c3ccc(C(F)(F)F)cc3)c2)CC1 [Example 34, 2-(2-cyanophenoxy)-N-[1-({1-[4-(trifluoromethyl)phenyl]-1H-pyrrol-3-yl}methyl)piperidin-4-yl]acetamide]
[3]
  reduced food intake: 20%

## O=C(COc1cccc(Cl)c1)NC1CN(Cc2ccn(-c3ccc(C(F)(F)F)cc3)c2)C1 [Example 41, 2-(3-chlorophenoxy)-N-[1-({1-[4-(trifluoromethyl)phenyl]-1H-pyrrol-3-yl}methyl)azetidin-3-yl]acetamide]
[1]
  IC50: 39 nM

## O=C(COc1ccc(F)c(F)c1)NC1CCN(Cc2ccn(-c3ccc(C(F)(F)F)cc3)c2)C1 (stereo not drawn) [Example 44, 2-(3,4-difluorophenoxy)-N-[1-({1-[4-(trifluoromethyl)phenyl]-1H-pyrrol-3-yl}methyl)pyrrolidin-3-yl]acetamide]
[1]
  IC50: 27 nM
